According to PubChem BioAssay (NCI):
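Tested at 5 concentrations; 48 h exposure; 96-well plates; endpoints linearly interpolated, else capped at highest concentration. TGI: concentration producing complete growth inhibition.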 Where a SMILES comes first, the peptide text is derived from it. The star is where a group is joined. ONb = O=[N+]([O-])c1ccc(CO*)cc1; Boc = CC(C)(C)OC(=O)*

How the values were obtained:
Assay in all cases: growth of human tumour cells (NCI), 48 h
HCC-2998 colon = test system: HCC-2998 colon
HL-60(TB) leukemia = test system: HL-60(TB) leukemia
LOX IMVI melanoma = test system: LOX IMVI melanoma
MDA-N = test system: MDA-N
NCI/ADR-RES ovarian = test system: NCI/ADR-RES ovarian
OVCAR-3 ovarian = test system: OVCAR-3 ovarian
OVCAR-4 ovarian = test system: OVCAR-4 ovarian
SF-268 CNS = test system: SF-268 CNS
SW-620 colon = test system: SW-620 colon
T-47D breast = test system: T-47D breast

Molecule `O=C(CCCCCCC(=O)Nc1cccnc1)NO` has a TGI (HCC-2998 colon) of 54.5 µM, a TGI (HL-60(TB) leukemia) of 31.6 µM and a TGI (LOX IMVI melanoma) of 38.9 µM. For the same molecule, the TGI (MDA-N) was greater than 25.6 µM, the TGI (NCI/ADR-RES ovarian) was 10.1 µM and the TGI (OVCAR-3 ovarian) was 18.7 µM. For the same molecule, the TGI (OVCAR-4 ovarian) was greater than 100 µM, the TGI (SF-268 CNS) was greater than 61 µM and the TGI (SW-620 colon) was greater than 100 µM. It also gave a TGI (T-47D breast) of 8.12 µM.

In the case of `CCCCCCCCCCCCOP(=O)(O)OCC(N)C(=O)O` (centres undefined), the TGI (HCC-2998 colon) was greater than 100 µM, the TGI (HL-60(TB) leukemia) was 36.8 µM and the TGI (LOX IMVI melanoma) was 64 µM. The TGI (MDA-N) was 62.6 µM, the TGI (NCI/ADR-RES ovarian) was greater than 100 µM and the TGI (OVCAR-3 ovarian) was 33.2 µM. For the same molecule, the TGI (OVCAR-4 ovarian) was greater than 100 µM, the TGI (SF-268 CNS) was greater than 100 µM and the TGI (SW-620 colon) was greater than 100 µM. For the same molecule, the TGI (T-47D breast) was greater than 100 µM.

`COC(=O)C1=C(O)C(C(=O)OC)[C@]2(O)[C@H](C(=O)OC)[C@H]1C[C@@H](c1c(Cl)cccc1Cl)[C@H]2C(=O)OC` (some centres undefined) showed a TGI (HCC-2998 colon) of 3.03 µM, a TGI (HL-60(TB) leukemia) of 18.7 µM and a TGI (LOX IMVI melanoma) of 3.69 µM. It also gave a TGI (MDA-N) of 3.02 µM, a TGI (NCI/ADR-RES ovarian) of 7.01 µM and a TGI (OVCAR-3 ovarian) of 7.87 µM. For the same molecule, the TGI (OVCAR-4 ovarian) was 30.4 µM, the TGI (SF-268 CNS) was 12.9 µM and the TGI (SW-620 colon) was 11 µM. For the same molecule, the TGI (T-47D breast) was 23 µM.

`Cc1cc(C)nc(SC(C)C(=O)N/N=C/c2ccc(OCc3ccccc3)cc2)n1` (centres undefined) gave a TGI (HCC-2998 colon) greater than 100 µM, a TGI (HL-60(TB) leukemia) of 38.3 µM and a TGI (LOX IMVI melanoma) greater than 100 µM. It also gave a TGI (MDA-N) greater than 100 µM, a TGI (NCI/ADR-RES ovarian) greater than 100 µM and a TGI (OVCAR-3 ovarian) greater than 100 µM. It also gave a TGI (OVCAR-4 ovarian) greater than 100 µM, a TGI (SF-268 CNS) greater than 100 µM and a TGI (SW-620 colon) greater than 100 µM. It also gave a TGI (T-47D breast) of 63.8 µM.

In the case of `Brc1ccc2c([C@H]3CN[C@@H](c4c[nH]c5cc(Br)ccc45)CN3)c[nH]c2c1`, the TGI (HCC-2998 colon) was 3.02 µM, the TGI (HL-60(TB) leukemia) was 4.22 µM and the TGI (LOX IMVI melanoma) was 3.36 µM. For the same molecule, the TGI (MDA-N) was 3.04 µM, the TGI (NCI/ADR-RES ovarian) was 17.1 µM and the TGI (OVCAR-3 ovarian) was 3.94 µM. For the same molecule, the TGI (OVCAR-4 ovarian) was 4.69 µM, the TGI (SF-268 CNS) was 20.4 µM and the TGI (SW-620 colon) was 3.28 µM. For the same molecule, the TGI (T-47D breast) was 12.8 µM.

Molecule `CC(C)CC(NC(=O)OC(C)(C)C)C(=O)NC(CCC(=O)OCc1ccc([N+](=O)[O-])cc1)C(=O)OCc1ccc([N+](=O)[O-])cc1` (stereo not drawn) (Boc-Leu-Glu(ONb)-ONb; configuration not given here) has a TGI (HCC-2998 colon) of 44.6 µM, a TGI (HL-60(TB) leukemia) of 19.1 µM and a TGI (LOX IMVI melanoma) of 63.8 µM. For the same molecule, the TGI (MDA-N) was greater than 100 µM, the TGI (NCI/ADR-RES ovarian) was greater than 100 µM and the TGI (OVCAR-3 ovarian) was 77.4 µM. The TGI (OVCAR-4 ovarian) was greater than 100 µM, the TGI (SF-268 CNS) was 39.3 µM and the TGI (SW-620 colon) was greater than 100 µM. For the same molecule, the TGI (T-47D breast) was greater than 100 µM.

`CCOC(=O)c1ccc(C(=O)/C(C(C)=O)=C2\CCCN2C)n1C` showed a TGI (HCC-2998 colon) greater than 100 µM, a TGI (HL-60(TB) leukemia) of 64.2 µM and a TGI (LOX IMVI melanoma) greater than 100 µM. It also gave a TGI (MDA-N) greater than 100 µM, a TGI (NCI/ADR-RES ovarian) greater than 100 µM and a TGI (OVCAR-3 ovarian) greater than 100 µM. It also gave a TGI (OVCAR-4 ovarian) greater than 100 µM, a TGI (SF-268 CNS) greater than 100 µM and a TGI (SW-620 colon) greater than 100 µM. The TGI (T-47D breast) was 92 µM.

In the case of `Cc1ccc(OC2CC(n3cnc4ncnc(Cl)c43)OC2Oc2ccc(C)cc2)cc1` (centres undefined), the TGI (HCC-2998 colon) was 24.9 µM, the TGI (HL-60(TB) leukemia) was greater than 100 µM and the TGI (LOX IMVI melanoma) was greater than 100 µM. It also gave a TGI (MDA-N) greater than 100 µM, a TGI (NCI/ADR-RES ovarian) of 64.9 µM and a TGI (OVCAR-3 ovarian) of 33.9 µM. The TGI (OVCAR-4 ovarian) was greater than 100 µM, the TGI (SF-268 CNS) was 50.1 µM and the TGI (SW-620 colon) was greater than 100 µM. For the same molecule, the TGI (T-47D breast) was 28.8 µM.

`O=C1CCCC/C1=C\c1ccc(Br)cc1` gave a TGI (HCC-2998 colon) of 44.4 µM, a TGI (HL-60(TB) leukemia) of 7.23 µM and a TGI (LOX IMVI melanoma) greater than 100 µM. The TGI (MDA-N) was 38.3 µM, the TGI (NCI/ADR-RES ovarian) was 12.2 µM and the TGI (OVCAR-3 ovarian) was 44.3 µM. For the same molecule, the TGI (OVCAR-4 ovarian) was 46.7 µM, the TGI (SF-268 CNS) was 36.3 µM and the TGI (SW-620 colon) was greater than 100 µM. It also gave a TGI (T-47D breast) of 51 µM.

In the case of `Cn1c(-c2ccccc2)cc2c3ccsc3c3ccsc3c21`, the TGI (HCC-2998 colon) was greater than 100 µM, the TGI (HL-60(TB) leukemia) was greater than 100 µM and the TGI (LOX IMVI melanoma) was greater than 100 µM. The TGI (MDA-N) was greater than 100 µM, the TGI (NCI/ADR-RES ovarian) was greater than 100 µM and the TGI (OVCAR-3 ovarian) was greater than 100 µM. The TGI (OVCAR-4 ovarian) was greater than 100 µM, the TGI (SF-268 CNS) was greater than 100 µM and the TGI (SW-620 colon) was greater than 100 µM. For the same molecule, the TGI (T-47D breast) was greater than 100 µM.

Work on `CC(=C(C(N)=O)C(N)=O)C1C=C(c2cccs2)CC(c2ccc(Cl)cc2)=C1O` (centres undefined) yielded a TGI (HCC-2998 colon) greater than 100 µM, a TGI (HL-60(TB) leukemia) greater than 100 µM and a TGI (LOX IMVI melanoma) of 40.4 µM. For the same molecule, the TGI (MDA-N) was greater than 100 µM, the TGI (NCI/ADR-RES ovarian) was greater than 100 µM and the TGI (OVCAR-3 ovarian) was greater than 100 µM. For the same molecule, the TGI (OVCAR-4 ovarian) was 78.8 µM, the TGI (SF-268 CNS) was greater than 100 µM and the TGI (SW-620 colon) was greater than 100 µM. For the same molecule, the TGI (T-47D breast) was greater than 100 µM.

In the case of `COc1ccc(/C=C2\CCC(CNc3ccc(OC)cc3)C2=O)cc1` (centres undefined), the TGI (HCC-2998 colon) was 48.1 µM, the TGI (HL-60(TB) leukemia) was 17.5 µM and the TGI (LOX IMVI melanoma) was 28 µM. It also gave a TGI (MDA-N) of 30.8 µM, a TGI (NCI/ADR-RES ovarian) greater than 100 µM and a TGI (OVCAR-3 ovarian) of 31.6 µM. The TGI (OVCAR-4 ovarian) was 45.7 µM, the TGI (SF-268 CNS) was 34.1 µM and the TGI (SW-620 colon) was 12.9 µM. It also gave a TGI (T-47D breast) of 57.1 µM.

In the case of `CCOC(=O)c1c(N2CCCC2)[nH]c(=O)c(C(c2ccco2)c2c(O)c(C(=O)OCC)c(N3CCCC3)[nH]c2=O)c1O`, the TGI (HCC-2998 colon) was greater than 100 µM, the TGI (HL-60(TB) leukemia) was greater than 100 µM and the TGI (LOX IMVI melanoma) was greater than 100 µM. The TGI (MDA-N) was greater than 100 µM, the TGI (NCI/ADR-RES ovarian) was greater than 100 µM and the TGI (OVCAR-3 ovarian) was greater than 100 µM. For the same molecule, the TGI (OVCAR-4 ovarian) was greater than 100 µM, the TGI (SF-268 CNS) was greater than 100 µM and the TGI (SW-620 colon) was greater than 100 µM. The TGI (T-47D breast) was greater than 100 µM.

With `Cc1cc(Cc2c(F)c(F)c(C(c3cc(C)no3)c3c(F)c(F)c(F)c(F)c3F)c(F)c2F)on1` (centres undefined) the TGI (HCC-2998 colon) was greater than 100 µM, the TGI (HL-60(TB) leukemia) was greater than 39.6 µM and the TGI (LOX IMVI melanoma) was greater than 100 µM. The TGI (MDA-N) was 15.1 µM, the TGI (NCI/ADR-RES ovarian) was greater than 100 µM and the TGI (OVCAR-3 ovarian) was greater than 100 µM. For the same molecule, the TGI (OVCAR-4 ovarian) was greater than 100 µM, the TGI (SF-268 CNS) was greater than 100 µM and the TGI (SW-620 colon) was greater than 100 µM. The TGI (T-47D breast) was greater than 100 µM.

With `COc1ccc(OC)c(CC2CCc3nc(N)nc(N)c3C2)c1` (centres undefined) the TGI (HCC-2998 colon) was greater than 49.9 µM, the TGI (HL-60(TB) leukemia) was greater than 100 µM and the TGI (LOX IMVI melanoma) was 25.6 µM. For the same molecule, the TGI (MDA-N) was 27.7 µM, the TGI (NCI/ADR-RES ovarian) was greater than 32.4 µM and the TGI (OVCAR-3 ovarian) was greater than 100 µM. The TGI (OVCAR-4 ovarian) was greater than 100 µM, the TGI (SW-620 colon) was greater than 100 µM and the TGI (T-47D breast) was greater than 68 µM.

Work on `Nc1nc(Cl)cc(NCCC2(CO)CCC2)n1` yielded a TGI (HCC-2998 colon) greater than 100 µM, a TGI (HL-60(TB) leukemia) greater than 100 µM and a TGI (LOX IMVI melanoma) greater than 100 µM. For the same molecule, the TGI (MDA-N) was greater than 100 µM, the TGI (NCI/ADR-RES ovarian) was greater than 100 µM and the TGI (OVCAR-3 ovarian) was greater than 100 µM. For the same molecule, the TGI (OVCAR-4 ovarian) was greater than 100 µM, the TGI (SF-268 CNS) was greater than 100 µM and the TGI (SW-620 colon) was greater than 100 µM. The TGI (T-47D breast) was greater than 100 µM.

In the case of `CC1C2CC(C(S(=O)(=O)N3CCOCC3)/C2=N\O)C1(C)C` (centres undefined), the TGI (HCC-2998 colon) was greater than 100 µM, the TGI (HL-60(TB) leukemia) was greater than 100 µM and the TGI (LOX IMVI melanoma) was greater than 100 µM. The TGI (MDA-N) was greater than 100 µM, the TGI (NCI/ADR-RES ovarian) was greater than 100 µM and the TGI (OVCAR-3 ovarian) was greater than 100 µM. It also gave a TGI (OVCAR-4 ovarian) greater than 100 µM, a TGI (SF-268 CNS) greater than 100 µM and a TGI (SW-620 colon) greater than 100 µM. It also gave a TGI (T-47D breast) greater than 100 µM.
